Laboratory results as given in the NIST ThermoML archive (doi:10.1021/je0502905).
Numbers after ± are expanded uncertainties.

Key:
[1] = Liquid; for mass density: 293.15 K, 101.33 kPa
[2] = refractive index (Na D-line) (dimensionless); details: 293.15 K; 101.33 kPa; Liquid; Standard Abbe refractometry

SMILES	mass density [1]	vapor or sublimation pressure ([1]; 359.51 K)	vapor or sublimation pressure ([1]; 379.52 K)	vapor or sublimation pressure ([1]; 392.57 K)	vapor or sublimation pressure ([1]; 400.69 K)	refractive index [2]	vapor or sublimation pressure ([1]; 379.88 K)	vapor or sublimation pressure ([1]; 401.28 K)	vapor or sublimation pressure ([1]; 415.26 K)	vapor or sublimation pressure ([1]; 423.97 K)	vapor or sublimation pressure ([1]; 375.63 K)	vapor or sublimation pressure ([1]; 392.7 K)	vapor or sublimation pressure ([1]; 403.8 K)	vapor or sublimation pressure ([1]; 410.79 K)
CCCCC(C)=O [2-hexanone]	811.2 ± 0.8 kg/m3	26.66 ± 0.27 kPa	53.33 ± 0.32 kPa	79.99 ± 0.45 kPa	101.32 ± 0.53 kPa	1.4008 ± 0.0007	–	–	–	–	–	–	–	–
CCCCCCCCC [nonane]	717.6 ± 0.7 kg/m3	–	–	–	–	1.4055 ± 0.0007	26.66 ± 0.25 kPa	53.33 ± 0.3 kPa	79.99 ± 0.42 kPa	101.32 ± 0.49 kPa	–	–	–	–
CCCCCO [pentan-1-ol]	814.5 ± 0.8 kg/m3	–	–	–	–	1.4098 ± 0.0007	–	–	–	–	26.66 ± 0.31 kPa	53.33 ± 0.37 kPa	79.99 ± 0.53 kPa	101.32 ± 0.61 kPa
